Legend:
Test in all cases: SILAC LC-MS ABPP
Assay type in all cases: cell-based
Conditions in all cases: 25 μM 2 h, live DM93 cells
[1] = biological target: T1, Q9H788 (Homo sapiens, UniProt Q9H788)
T1 construct: endogenous in cells; host or cells: DM93 cells (SILAC), treated live; soluble proteome analysed
How it was run: (§1)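 Ligand engagement is measured as loss of HHS-475 probe labelling at specific tyrosines. SILAC DM93 melanoma cells were treated in situ (25 μM ligand vs DMSO, 2 h, 37 °C; then 100 μM probe, 2 h), and modified peptides were quantified by high-resolution LC-MS/MS after desthiobiotin tagging and avidin capture.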

[2] = biological target: T2, P50749 (Homo sapiens, UniProt P50749)
T2 construct: Probe-modified proteins from the soluble fraction were conjugated to a desthiobiotin-azide tag; endogenous in cells; host or cells: DM93 cells (SILAC)
How it was run: as §1

[3] = biological target: T3, O14777 (Homo sapiens, UniProt O14777)
T3 construct: endogenous in cells; host or cells: DM93
How it was run: as §1

[4] = biological target: T4, Q13011 (Homo sapiens, UniProt Q13011)
T4 construct: performing SuTEx compound screening directly in cells; endogenous in cells; host or cells: DM93 cells (SILAC)
How it was run: as §1

[5] = biological target: T5, P40939 (Homo sapiens, UniProt P40939)
T5 construct: endogenous in cells; host or cells: DM93 cells (SILAC)
How it was run: as §1

[6] = biological target: T6, Q9UDY2 (Homo sapiens, UniProt Q9UDY2)
T6 construct: endogenous in cells; host or cells: DM93 cells (SILAC)
How it was run: as §1

[7] = biological target: T7, O43852 (Homo sapiens, UniProt O43852)
T7 construct: endogenous in cells; host or cells: DM93
How it was run: as §1

[8] = biological target: T8, P62263 (Homo sapiens, UniProt P62263)
T8 construct: performing SuTEx compound screening directly in cells; endogenous in cells; host or cells: DM93 cells (SILAC)
How it was run: as §1

[9] = biological target: T9, P62847 (Homo sapiens, UniProt P62847)
T9 construct: performing SuTEx compound screening directly in cells; endogenous in cells; host or cells: DM93 cells (SILAC)
How it was run: as §1

[10] = biological target: T10, Q9C0C2 (Homo sapiens, UniProt Q9C0C2)
T10 construct: endogenous in cells; host or cells: DM93 cells (SILAC), treated live; soluble proteome analysed
How it was run: as §1

[11] = biological target: T11, O95163 (Homo sapiens, UniProt O95163)
T11 construct: endogenous in cells; host or cells: DM93 cells (SILAC)
How it was run: as §1

[12] = biological target: T12, P51784 (Homo sapiens, UniProt P51784)
T12 construct: endogenous in cells; host or cells: DM93 cells (SILAC)
How it was run: as §1

[13] = biological target: T13, Q8NBF2 (Homo sapiens, UniProt Q8NBF2)
T13 construct: endogenous in cells; host or cells: DM93 cells (SILAC), live-cell treatment
How it was run: as §1

[14] = biological target: T14, Q8IX04 (Homo sapiens, UniProt Q8IX04)
T14 construct: endogenous in cells; host or cells: DM93 cells (SILAC), live-cell treatment
How it was run: as §1

[15] = biological target: T15, Q8WVJ2 (Homo sapiens, UniProt Q8WVJ2)
T15 construct: endogenous in cells; host or cells: DM93 cells (SILAC), live-cell treatment
How it was run: as §1

[16] = biological target: T16, Q06203 (Homo sapiens, UniProt Q06203)
T16 construct: performing SuTEx compound screening directly in cells; endogenous in cells; host or cells: DM93 cells (SILAC)
How it was run: as §1

[17] = biological target: T17, Q16576 (Homo sapiens, UniProt Q16576)
T17 construct: performing SuTEx compound screening directly in cells; endogenous in cells; host or cells: DM93 cells (SILAC), soluble fraction
How it was run: as §1

[18] = biological target: T18, P05455 (Homo sapiens, UniProt P05455)
T18 construct: endogenous in cells; host or cells: DM93 cells (SILAC)
How it was run: as §1

T3 sequence (O14777 whole entry): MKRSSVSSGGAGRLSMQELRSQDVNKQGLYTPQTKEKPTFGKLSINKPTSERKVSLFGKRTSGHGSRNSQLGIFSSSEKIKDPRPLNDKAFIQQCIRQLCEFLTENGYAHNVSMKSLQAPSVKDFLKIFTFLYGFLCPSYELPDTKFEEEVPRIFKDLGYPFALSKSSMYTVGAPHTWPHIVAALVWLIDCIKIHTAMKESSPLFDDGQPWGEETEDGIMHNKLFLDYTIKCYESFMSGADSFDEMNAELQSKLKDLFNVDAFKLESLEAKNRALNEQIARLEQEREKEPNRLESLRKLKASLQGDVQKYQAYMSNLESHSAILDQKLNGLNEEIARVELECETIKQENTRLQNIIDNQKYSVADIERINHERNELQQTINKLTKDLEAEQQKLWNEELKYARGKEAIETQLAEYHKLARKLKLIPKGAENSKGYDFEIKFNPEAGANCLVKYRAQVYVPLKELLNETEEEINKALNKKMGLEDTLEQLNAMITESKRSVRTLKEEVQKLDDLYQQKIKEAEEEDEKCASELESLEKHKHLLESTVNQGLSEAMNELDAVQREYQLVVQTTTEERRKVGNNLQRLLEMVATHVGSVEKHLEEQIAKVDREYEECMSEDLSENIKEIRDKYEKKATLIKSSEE
T17 sequence (Q16576 whole entry): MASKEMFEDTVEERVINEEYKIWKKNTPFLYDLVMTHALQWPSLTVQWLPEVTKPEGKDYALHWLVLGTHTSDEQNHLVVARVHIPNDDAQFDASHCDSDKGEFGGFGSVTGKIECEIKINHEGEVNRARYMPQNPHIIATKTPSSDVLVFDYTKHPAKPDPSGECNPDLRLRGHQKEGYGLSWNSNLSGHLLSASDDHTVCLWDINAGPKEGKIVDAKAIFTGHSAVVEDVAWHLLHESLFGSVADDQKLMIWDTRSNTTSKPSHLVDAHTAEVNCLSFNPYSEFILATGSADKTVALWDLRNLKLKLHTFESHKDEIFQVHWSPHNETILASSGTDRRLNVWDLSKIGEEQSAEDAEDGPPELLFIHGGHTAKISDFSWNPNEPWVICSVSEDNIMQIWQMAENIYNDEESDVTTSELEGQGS
T7 sequence (O43852 20-315): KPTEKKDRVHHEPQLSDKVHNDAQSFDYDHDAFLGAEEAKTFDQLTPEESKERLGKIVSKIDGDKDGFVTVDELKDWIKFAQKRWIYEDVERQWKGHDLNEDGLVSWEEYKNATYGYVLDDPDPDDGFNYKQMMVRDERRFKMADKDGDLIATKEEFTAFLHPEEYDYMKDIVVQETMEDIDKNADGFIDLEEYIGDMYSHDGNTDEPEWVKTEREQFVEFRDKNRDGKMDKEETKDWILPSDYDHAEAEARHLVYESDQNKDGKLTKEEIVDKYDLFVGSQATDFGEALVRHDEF
T15 sequence (Q8WVJ2 whole entry): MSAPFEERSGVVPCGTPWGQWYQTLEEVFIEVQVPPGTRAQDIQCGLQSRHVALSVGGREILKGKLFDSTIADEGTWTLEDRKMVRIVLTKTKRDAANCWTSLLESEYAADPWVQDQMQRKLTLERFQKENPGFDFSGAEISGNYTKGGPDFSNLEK
T4 sequence (Q13011 34-328): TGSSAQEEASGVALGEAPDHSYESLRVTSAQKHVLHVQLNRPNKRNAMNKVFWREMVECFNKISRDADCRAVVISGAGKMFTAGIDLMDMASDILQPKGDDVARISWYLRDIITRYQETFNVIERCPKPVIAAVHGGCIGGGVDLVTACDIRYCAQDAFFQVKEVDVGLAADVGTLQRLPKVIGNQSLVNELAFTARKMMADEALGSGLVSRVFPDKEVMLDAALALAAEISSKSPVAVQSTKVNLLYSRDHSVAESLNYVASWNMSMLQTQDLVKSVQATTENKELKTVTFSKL
T12 sequence (P51784 whole entry): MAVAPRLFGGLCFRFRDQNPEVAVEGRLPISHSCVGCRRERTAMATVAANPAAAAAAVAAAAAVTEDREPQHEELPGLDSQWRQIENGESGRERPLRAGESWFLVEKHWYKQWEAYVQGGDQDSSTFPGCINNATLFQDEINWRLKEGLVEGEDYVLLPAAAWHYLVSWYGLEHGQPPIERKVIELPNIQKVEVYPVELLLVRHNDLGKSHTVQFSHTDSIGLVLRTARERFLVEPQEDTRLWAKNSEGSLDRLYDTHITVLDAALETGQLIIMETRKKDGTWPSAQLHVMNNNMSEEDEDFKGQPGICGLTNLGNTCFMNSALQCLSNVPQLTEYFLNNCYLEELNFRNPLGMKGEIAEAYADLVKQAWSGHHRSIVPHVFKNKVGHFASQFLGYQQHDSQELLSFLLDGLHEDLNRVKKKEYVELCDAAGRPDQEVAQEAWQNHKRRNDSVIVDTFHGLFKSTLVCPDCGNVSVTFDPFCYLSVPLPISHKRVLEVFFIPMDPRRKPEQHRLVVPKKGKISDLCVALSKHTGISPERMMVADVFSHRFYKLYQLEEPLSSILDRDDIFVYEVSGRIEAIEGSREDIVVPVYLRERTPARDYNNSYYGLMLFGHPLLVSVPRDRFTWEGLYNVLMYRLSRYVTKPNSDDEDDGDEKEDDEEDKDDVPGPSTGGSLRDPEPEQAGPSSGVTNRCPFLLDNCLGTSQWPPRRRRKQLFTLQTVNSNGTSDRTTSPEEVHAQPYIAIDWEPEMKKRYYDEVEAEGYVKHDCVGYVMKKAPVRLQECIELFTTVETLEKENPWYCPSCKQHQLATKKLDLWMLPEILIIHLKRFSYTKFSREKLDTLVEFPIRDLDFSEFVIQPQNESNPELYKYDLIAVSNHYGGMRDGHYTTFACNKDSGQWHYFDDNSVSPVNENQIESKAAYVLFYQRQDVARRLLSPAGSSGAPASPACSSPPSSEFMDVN
T11 sequence (O95163 whole entry): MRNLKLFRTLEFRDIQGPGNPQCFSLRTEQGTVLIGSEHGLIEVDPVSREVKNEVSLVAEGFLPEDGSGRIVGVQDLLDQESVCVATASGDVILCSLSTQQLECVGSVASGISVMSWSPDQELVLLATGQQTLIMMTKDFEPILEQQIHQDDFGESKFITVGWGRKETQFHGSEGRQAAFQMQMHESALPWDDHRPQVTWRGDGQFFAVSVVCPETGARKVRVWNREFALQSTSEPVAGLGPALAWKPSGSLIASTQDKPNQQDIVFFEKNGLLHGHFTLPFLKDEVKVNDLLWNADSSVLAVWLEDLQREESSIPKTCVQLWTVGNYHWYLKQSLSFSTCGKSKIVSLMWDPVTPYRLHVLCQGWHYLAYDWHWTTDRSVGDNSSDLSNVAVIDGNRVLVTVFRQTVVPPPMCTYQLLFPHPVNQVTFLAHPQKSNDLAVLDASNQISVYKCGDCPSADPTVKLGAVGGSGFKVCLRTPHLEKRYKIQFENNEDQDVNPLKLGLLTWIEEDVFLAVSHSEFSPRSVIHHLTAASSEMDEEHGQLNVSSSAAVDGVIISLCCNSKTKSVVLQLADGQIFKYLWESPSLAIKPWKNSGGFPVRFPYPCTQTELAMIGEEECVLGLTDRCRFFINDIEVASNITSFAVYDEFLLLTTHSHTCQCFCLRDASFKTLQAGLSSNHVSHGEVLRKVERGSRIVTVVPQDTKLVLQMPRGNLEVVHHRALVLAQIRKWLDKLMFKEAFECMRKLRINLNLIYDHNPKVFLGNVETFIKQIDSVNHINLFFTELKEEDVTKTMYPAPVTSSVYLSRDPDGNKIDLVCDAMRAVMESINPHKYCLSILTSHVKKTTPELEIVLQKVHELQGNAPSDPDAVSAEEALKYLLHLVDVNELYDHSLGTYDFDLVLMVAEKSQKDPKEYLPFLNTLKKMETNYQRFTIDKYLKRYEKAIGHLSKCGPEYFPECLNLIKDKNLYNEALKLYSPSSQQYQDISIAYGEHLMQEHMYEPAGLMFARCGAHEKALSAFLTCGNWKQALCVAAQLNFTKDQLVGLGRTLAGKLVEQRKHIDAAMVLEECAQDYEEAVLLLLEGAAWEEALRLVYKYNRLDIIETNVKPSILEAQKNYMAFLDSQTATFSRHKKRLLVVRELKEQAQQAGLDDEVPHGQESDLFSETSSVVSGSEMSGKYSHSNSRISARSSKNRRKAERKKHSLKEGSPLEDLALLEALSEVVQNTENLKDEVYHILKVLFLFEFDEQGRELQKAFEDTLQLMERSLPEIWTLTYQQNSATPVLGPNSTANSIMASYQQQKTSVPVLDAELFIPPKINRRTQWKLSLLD
T14 sequence (Q8IX04 whole entry): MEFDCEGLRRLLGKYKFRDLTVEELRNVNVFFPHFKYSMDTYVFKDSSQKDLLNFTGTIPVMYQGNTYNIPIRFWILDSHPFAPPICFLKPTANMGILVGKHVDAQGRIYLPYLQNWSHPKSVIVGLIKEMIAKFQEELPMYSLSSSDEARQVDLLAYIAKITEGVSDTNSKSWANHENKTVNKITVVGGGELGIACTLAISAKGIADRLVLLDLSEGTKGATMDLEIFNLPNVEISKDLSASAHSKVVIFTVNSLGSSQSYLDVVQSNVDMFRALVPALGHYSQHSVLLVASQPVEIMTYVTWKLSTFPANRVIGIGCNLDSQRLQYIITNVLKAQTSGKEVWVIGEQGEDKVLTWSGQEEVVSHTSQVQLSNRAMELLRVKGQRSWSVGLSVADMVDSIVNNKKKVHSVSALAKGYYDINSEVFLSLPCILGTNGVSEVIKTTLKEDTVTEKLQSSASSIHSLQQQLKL
T18 sequence (P05455 whole entry): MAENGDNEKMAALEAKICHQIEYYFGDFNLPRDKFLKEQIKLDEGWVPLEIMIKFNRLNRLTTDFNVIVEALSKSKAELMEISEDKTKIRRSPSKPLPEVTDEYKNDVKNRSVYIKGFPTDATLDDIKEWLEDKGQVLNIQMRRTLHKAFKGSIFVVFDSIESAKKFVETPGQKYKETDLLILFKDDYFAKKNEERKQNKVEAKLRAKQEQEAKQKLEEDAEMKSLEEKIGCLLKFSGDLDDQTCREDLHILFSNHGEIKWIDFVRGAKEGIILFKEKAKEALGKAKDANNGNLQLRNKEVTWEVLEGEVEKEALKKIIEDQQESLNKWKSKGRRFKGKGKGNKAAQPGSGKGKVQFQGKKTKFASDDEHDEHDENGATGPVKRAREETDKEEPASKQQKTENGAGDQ

SMILES: O=C(c1ccc(S(=O)(=O)n2cncn2)cc1)N1CCC(c2ccccc2)CC1 [HHS-0701, (4-((1H-1,2,4-triazol-1-yl)sulfonyl)phenyl)(4-phenylpiperidin-1-yl)methanone]
- liganded tyrosine site 194 [1]: HHS0701.Y (tyrosine sites that showed >80% reductions (SR >5) in probe labeling in cells treated with compounds (liganded sites))
- liganded tyrosine site 270 [2]: HHS0701.Y (tyrosine sites that showed >80% reductions (SR >5) in probe labeling in cells treated with compounds (liganded sites))
- liganded tyrosine site 310 [3]: HHS0701.Y (tyrosine sites that showed >80% reductions (SR >5) in probe labeling in cells treated with compounds (liganded sites))
- liganded tyrosine site 149 [4]: HHS0701.Y (tyrosine sites that showed >80% reductions (SR >5) in probe labeling in cells treated with compounds (liganded sites))
- liganded tyrosine site 343 [5]: HHS0701.Y (tyrosine sites that showed >80% reductions (SR >5) in probe labeling in cells treated with compounds (liganded sites))

SMILES: O=C(NCC1CC1)c1ccc(S(=O)(=O)n2cncn2)cc1 [HHS-0201, 4-((1H-1,2,4-triazol-1-yl)sulfonyl)-N-(cyclopropylmethyl)benzamide]
- liganded tyrosine site 423 [6]: HHS0201.Y|HHS0301.Y (tyrosine sites that showed >80% reductions (SR >5) in probe labeling in cells treated with compounds (liganded sites))
- liganded tyrosine site 294 [7]: HHS0201.Y (tyrosine sites that showed >80% reductions (SR >5) in probe labeling in cells treated with compounds (liganded sites))
- liganded tyrosine site 72 [8]: HHS0201.Y|HHS0301.Y (tyrosine sites that showed >80% reductions (SR >5) in probe labeling in cells treated with compounds (liganded sites))
- liganded tyrosine site 81 [9]: HHS0201.Y (tyrosine sites that showed >80% reductions (SR >5) in probe labeling in cells treated with compounds (liganded sites))
- liganded tyrosine site 897 [10]: HHS0201.Y|HHS0301.Y|HHS0401.Y|HHS0701.Y (tyrosine sites that showed >80% reductions (SR >5) in probe labeling in cells treated with compounds (liganded sites))

SMILES: O=C(NC1CC1)c1ccc(S(=O)(=O)n2cncn2)cc1 [HHS-0101, 4-((1H-1,2,4-triazol-1-yl)sulfonyl)-N-cyclopropylbenzamide]
- liganded tyrosine site 957 [11]: HHS0101.Y|HHS0301.Y|HHS0401.Y (tyrosine sites that showed >80% reductions (SR >5) in probe labeling in cells treated with compounds (liganded sites))
- liganded tyrosine site 396 [12]: HHS0101.Y (tyrosine sites that showed >80% reductions (SR >5) in probe labeling in cells treated with compounds (liganded sites))
- liganded tyrosine site 23 [13]: HHS0101.Y (tyrosine sites that showed >80% reductions (SR >5) in probe labeling in cells treated with compounds (liganded sites))
- liganded tyrosine site 158 [14]: HHS0101.Y|HHS0201.Y|HHS0301.Y (tyrosine sites that showed >80% reductions (SR >5) in probe labeling in cells treated with compounds (liganded sites))
- liganded tyrosine site 145 [15]: HHS0101.Y (tyrosine sites that showed >80% reductions (SR >5) in probe labeling in cells treated with compounds (liganded sites))

SMILES: O=C(NC1CCCCC1)c1ccc(S(=O)(=O)n2cncn2)cc1 [HHS-0301, 4-((1H-1,2,4-triazol-1-yl)sulfonyl)-N-cyclohexylbenzamide]
- liganded tyrosine site 451 [16]: HHS0301.Y (tyrosine sites that showed >80% reductions (SR >5) in probe labeling in cells treated with compounds (liganded sites))
- liganded tyrosine site 153 [17]: HHS0301.Y|HHS0701.Y (tyrosine sites that showed >80% reductions (SR >5) in probe labeling in cells treated with compounds (liganded sites))

SMILES: O=C(NCc1ccccc1)c1ccc(S(=O)(=O)n2cncn2)cc1 [HHS-0401, 4-((1H-1,2,4-triazol-1-yl)sulfonyl)-N-benzylbenzamide]
- liganded tyrosine site 188 [18]: HHS0401.Y (tyrosine sites that showed >80% reductions (SR >5) in probe labeling in cells treated with compounds (liganded sites))
